From article PMC4824473, “Dose-Response Analysis of Chemotactic Signaling Response in Salmonella typhimurium LT2 upon Exposure to Cysteine / Cystine Redox Pair” (PLoS ONE, 2016) come the findings set out here.

The assay concerns the target T1, Tar (Salmonella enterica, UniProt P02941).
T1 construct: native chromosomal full-length receptor, homodimer in mixed receptor arrays; strain TSS868 (LT2 delta-tsr delta-cheY delta-cheZ) with CheZ-CFP/CheY-YFP plasmid pVS88; other native receptors present
As to the kind of experiment: in vivo CheZ-CFP/CheY-YFP FRET of receptor-kinase activity, Hill fit. The assay is classed as cell-based. As to conditions: live delta-tsr cells, motility buffer pH 7.0, room temperature; attractant; Hill coefficient 1.5; other receptors present; about 1% of Cys possibly oxidized to cystine; read-out: half maximum.

T1 sequence (P02941 whole entry): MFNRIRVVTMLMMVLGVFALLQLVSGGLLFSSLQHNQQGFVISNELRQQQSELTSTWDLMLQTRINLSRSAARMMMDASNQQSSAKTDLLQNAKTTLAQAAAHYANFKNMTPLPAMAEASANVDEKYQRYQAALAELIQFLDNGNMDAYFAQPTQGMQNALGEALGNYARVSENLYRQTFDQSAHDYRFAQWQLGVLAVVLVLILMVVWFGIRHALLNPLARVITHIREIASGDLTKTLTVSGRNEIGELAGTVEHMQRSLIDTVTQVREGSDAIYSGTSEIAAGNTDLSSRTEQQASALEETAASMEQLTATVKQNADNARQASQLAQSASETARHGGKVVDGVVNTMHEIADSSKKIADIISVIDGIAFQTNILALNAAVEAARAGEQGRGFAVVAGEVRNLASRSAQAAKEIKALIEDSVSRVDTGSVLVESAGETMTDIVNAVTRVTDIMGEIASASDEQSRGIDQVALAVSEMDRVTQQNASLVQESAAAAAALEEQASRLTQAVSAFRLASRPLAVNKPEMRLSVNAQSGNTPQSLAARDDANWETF

Regarding `N[C@@H](CS)C(=O)O` [Cys], the EC50 stood at 128 µM.
